Test results: patent US20080292588A1, “1-METHYL-BENZO[1,2,4]THIADIAZINE 1-OXIDE DERIVATIVES” (Anadys Pharmaceuticals, Inc., priority 2007, published 2008)
Read-outs that look alike come from different tables or passages of the source.

Biological target: HCV NS5B polymerase (Hepatitis C virus genotype 1b, UniProt Q9WMX2)
Assay: HCV NS5B polymerase inhibition assay (FlashPlate, [α-33P]GTP incorporation)
Type: biochemical
Procedure: Compounds were tested for HCV NS5B polymerase inhibition. Assays were performed in a 96-well streptavidin-coated FlashPlate using 20 nM enzyme, 1.4 μCi of [(α-^33P]GTP, 0.63 μM GTP, and 250 nM 5′biotinylated oligo (rG13)/poly rC in 20 mM Tris-HCl, pH 7.5, 5 mM MgCl2, 5 mM dithiothreitol, 0.1 g/L bovine serum albumin, and 100 U/ml RNAse inhibitor. The reaction was stopped by aspiration after 75 min at 28° C. and the plate was washed several times. After washing and drying the plate, incorporated radioactivity was counted using a Microbeta scintillation counter. IC50 values were calculated relative to the uninhibited control and inhibition data were fitted to a 4-parameter IC50 equation. For very potent inhibitors, the data were fitted to a tight binding quadratic equation to obtain IC50 values.

[1] = 20 nM enzyme, 75 min at 28° C., read-out: NS5B IC50
[2] = read-out: NS5B polymerase inhibition IC50

HCV NS5B polymerase, sequence (Q9WMX2 2420-3010): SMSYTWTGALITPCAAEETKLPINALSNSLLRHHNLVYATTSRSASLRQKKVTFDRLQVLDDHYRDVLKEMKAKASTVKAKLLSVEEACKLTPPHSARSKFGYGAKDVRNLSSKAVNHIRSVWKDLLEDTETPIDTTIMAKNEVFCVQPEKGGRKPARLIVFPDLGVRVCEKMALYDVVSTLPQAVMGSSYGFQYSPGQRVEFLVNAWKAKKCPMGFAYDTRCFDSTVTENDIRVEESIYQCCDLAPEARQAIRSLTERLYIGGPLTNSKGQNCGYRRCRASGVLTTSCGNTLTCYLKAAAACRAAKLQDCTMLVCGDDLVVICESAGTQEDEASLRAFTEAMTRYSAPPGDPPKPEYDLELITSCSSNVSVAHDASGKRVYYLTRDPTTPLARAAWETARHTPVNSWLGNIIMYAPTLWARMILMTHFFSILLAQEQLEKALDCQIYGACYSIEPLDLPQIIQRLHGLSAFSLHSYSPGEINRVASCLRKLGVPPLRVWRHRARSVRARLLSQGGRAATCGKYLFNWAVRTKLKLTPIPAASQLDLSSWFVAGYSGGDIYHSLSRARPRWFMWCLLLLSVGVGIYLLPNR

SMILES	IC50 [1]	IC50 [2]
CS(=O)(=O)Nc1ccc2c(c1)S(C)(=O)=NC(C1=C(O)[C@H]3[C@H]([C@@H]4CC[C@H]3O4)N(Cc3ccc(F)cc3)C1=O)=N2 (mixture of isomers) [Compound 63, N-{3-[3-(4-fluoro-benzyl)-6-hydroxy-4-oxo-11-oxa-3-aza-tricyclo[6.2.1.0^2,7]undec-5-en-5-yl]-1-methyl-1-oxo-1λ^6-benzo[1,2,4]thiadiazin-7-yl}-methanesulfonamide]	< 1000 nM	< 1000 nM
CC[C@H]1CC(O)=C(C2=Nc3ccc(NS(C)(=O)=O)cc3S(C)(=O)=N2)C(=O)N1Cc1ccc(F)cc1 (mixture of isomers) [Compound 75, N-{3-[6-(S)-Ethyl-1-(4-fluoro-benzyl)-4-hydroxy-2-oxo-1,2,5,6-tetrahydro-pyridin-3-yl]-1-methyl-1-oxo-1λ^6-benzo[1,2,4]thiadiazin-7-yl}-methanesulfonamide]	< 1000 nM	< 1000 nM
CC(C)(C)CCn1nc(-c2cccs2)c(O)c(C2=Nc3ccc(NS(C)(=O)=O)cc3S(C)(=O)=N2)c1=O (racemic) [Compound 22, N-{3-[2-(3,3-dimethyl-butyl)-5-hydroxy-3-oxo-6-thiophen-2-yl-2,3-dihydro-pyridazin-4-yl]-1-methyl-1-oxo-1l6-benzo[1,2,4]thiadiazin-7-yl}-methanesulfonamide]	< 1000 nM	< 1000 nM
CC(C)(C)CC[C@@]1(C)C(=O)C(C2=Nc3ccc(NS(C)(=O)=O)cc3S(C)(=O)=N2)=C(O)c2ccccc21 (mixture of isomers) [Compound 36, N-{3-[4-(3,3-dimethyl-butyl)-1-hydroxy-4-methyl-3-oxo-3,4-dihydro-naphthalen-2-yl]-1-methyl-1-oxo-1λ^6-benzo[1,2,4]thiadiazin-7-yl}-methanesulfonamide]	< 1000 nM	< 1000 nM
CC(C)(C)[C@H]1C(O)=C(C2=Nc3ccc(NS(C)(=O)=O)cc3S(C)(=O)=N2)C(=O)N1Cc1ccc(F)c(Cl)c1 (stereo in doubt) [Compound 32, N-{3-[5-tert-butyl-1-(3-chloro-4-fluoro-benzyl)-4-hydroxy-2-oxo-2,5-dihydro-1H-pyrrol-3-yl]-1-methyl-1-oxo-1λ^6-benzo[1,2,4]thiadiazin-7-yl}-methanesulfonamide]	< 1000 nM	< 1000 nM
CS1(=O)=NC(C2=C(O)[C@@H]3CCC[C@@H]3N(Cc3ccc(F)cc3)C2=O)=Nc2ccccc21 (stereo in doubt) [Compound 68, 1-(4-fluoro-benzyl)-4-hydroxy-3-(1-methyl-1-oxo-1λ^6-benzo[1,2,4]thiadiazin-3-yl)-1,4a,5,6,7,7a-hexahydro-[1]pyrindin-2-one]	1000 to 100000 nM	< 100000 nM
CC(C)(C)CCn1nc(-c2cccs2)c(O)c(C2=Nc3ccc(NS(C)(=O)=O)cc3[S@@](C)(=O)=N2)c1=O [Compound 23]	< 1000 nM	< 1000 nM
CC(C)(C)CCn1nc(-c2cccs2)c(O)c(C2=Nc3ccc(NS(C)(=O)=O)cc3[S@](C)(=O)=N2)c1=O [Compound 24]	1000 to 100000 nM	< 100000 nM
CC(C)(C)CCn1nc(N2CCCC2)c(O)c(C2=Nc3ccc(NS(C)(=O)=O)cc3S(C)(=O)=N2)c1=O (stereo not drawn) [Compound 28, N-{3-[2-(3,3-dimethyl-butyl)-5-hydroxy-3-oxo-6-pyrrolidin-1-yl-2,3-dihydro-pyridazin-4-yl]-1-methyl-1-oxo-1λ^6-benzo[1,2,4]thiadiazin-7-yl}-methanesulfonamide]	< 1000 nM	< 1000 nM
CC(C)(C)CC[C@@]1(C)C(=O)C(C2=Nc3ccc(NS(C)(=O)=O)cc3[S@@](C)(=O)=N2)=C(O)c2ccccc21 [Compound 37]	< 1000 nM	< 1000 nM
CC(C)(C)CC[C@@]1(C)C(=O)C(C2=Nc3ccc(NS(C)(=O)=O)cc3[S@](C)(=O)=N2)=C(O)c2ccccc21 [Compound 38]	< 1000 nM	< 1000 nM
CS(=O)(=O)Nc1ccc2c(c1)S(C)(=O)=NC(C1=C(O)[C@@H]3[C@H]4CC[C@H](C4)[C@@H]3N(Cc3ccc(F)cc3)C1=O)=N2 (stereo partly drawn) [Compound 54, N-{3-[3-(4-fluoro-benzyl)-6-hydroxy-4-oxo-3-aza-tricyclo[6.2.1.0^2,7]undec-5-en-5-yl]-1-methyl-1-oxo-1λ^6-benzo[1,2,4]thiadiazin-7-yl}-methanesulfonamide]	< 1000 nM	< 1000 nM
